Measured values as given in paper PMC7613998, “Development of selective inhibitors of phosphatidylinositol 3-kinase C2α” (Nature Chemical Biology, 2022).
pIC50: −log10 of the molar value.

Legend:
Assay in all cases: biochemical
AKT2 (PKB beta) = AKT2 (PKB beta) (Homo sapiens, UniProt P31751); design: SelectScreen Z'-LYTE purified kinase panel, per cent inhibition, mean of two points; details: (μM)=Km app
AURKB (Aurora B) = AURKB (Aurora B) (Homo sapiens, UniProt Q96GD4); design: SelectScreen Z'-LYTE purified kinase panel, per cent inhibition, mean of two points; details: (μM)=Km app
Chain of AURKB (Aurora B) (Q96GD4 whole entry): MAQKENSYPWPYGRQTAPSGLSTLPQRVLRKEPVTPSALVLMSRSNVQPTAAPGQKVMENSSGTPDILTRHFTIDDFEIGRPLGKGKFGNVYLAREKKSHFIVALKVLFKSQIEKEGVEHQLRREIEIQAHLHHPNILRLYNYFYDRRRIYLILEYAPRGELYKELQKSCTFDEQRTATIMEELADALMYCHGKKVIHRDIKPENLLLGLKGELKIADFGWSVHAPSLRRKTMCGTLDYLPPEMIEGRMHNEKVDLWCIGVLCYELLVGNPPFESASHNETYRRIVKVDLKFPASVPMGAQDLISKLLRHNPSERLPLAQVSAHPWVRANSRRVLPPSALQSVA

ERBB2 (HER2) = ERBB2 (HER2) (Homo sapiens, UniProt P04626); design: SelectScreen Z'-LYTE purified kinase panel, per cent inhibition, mean of two points; details: (μM)=Km app
Chain of ERBB2 (HER2) (P04626 whole entry): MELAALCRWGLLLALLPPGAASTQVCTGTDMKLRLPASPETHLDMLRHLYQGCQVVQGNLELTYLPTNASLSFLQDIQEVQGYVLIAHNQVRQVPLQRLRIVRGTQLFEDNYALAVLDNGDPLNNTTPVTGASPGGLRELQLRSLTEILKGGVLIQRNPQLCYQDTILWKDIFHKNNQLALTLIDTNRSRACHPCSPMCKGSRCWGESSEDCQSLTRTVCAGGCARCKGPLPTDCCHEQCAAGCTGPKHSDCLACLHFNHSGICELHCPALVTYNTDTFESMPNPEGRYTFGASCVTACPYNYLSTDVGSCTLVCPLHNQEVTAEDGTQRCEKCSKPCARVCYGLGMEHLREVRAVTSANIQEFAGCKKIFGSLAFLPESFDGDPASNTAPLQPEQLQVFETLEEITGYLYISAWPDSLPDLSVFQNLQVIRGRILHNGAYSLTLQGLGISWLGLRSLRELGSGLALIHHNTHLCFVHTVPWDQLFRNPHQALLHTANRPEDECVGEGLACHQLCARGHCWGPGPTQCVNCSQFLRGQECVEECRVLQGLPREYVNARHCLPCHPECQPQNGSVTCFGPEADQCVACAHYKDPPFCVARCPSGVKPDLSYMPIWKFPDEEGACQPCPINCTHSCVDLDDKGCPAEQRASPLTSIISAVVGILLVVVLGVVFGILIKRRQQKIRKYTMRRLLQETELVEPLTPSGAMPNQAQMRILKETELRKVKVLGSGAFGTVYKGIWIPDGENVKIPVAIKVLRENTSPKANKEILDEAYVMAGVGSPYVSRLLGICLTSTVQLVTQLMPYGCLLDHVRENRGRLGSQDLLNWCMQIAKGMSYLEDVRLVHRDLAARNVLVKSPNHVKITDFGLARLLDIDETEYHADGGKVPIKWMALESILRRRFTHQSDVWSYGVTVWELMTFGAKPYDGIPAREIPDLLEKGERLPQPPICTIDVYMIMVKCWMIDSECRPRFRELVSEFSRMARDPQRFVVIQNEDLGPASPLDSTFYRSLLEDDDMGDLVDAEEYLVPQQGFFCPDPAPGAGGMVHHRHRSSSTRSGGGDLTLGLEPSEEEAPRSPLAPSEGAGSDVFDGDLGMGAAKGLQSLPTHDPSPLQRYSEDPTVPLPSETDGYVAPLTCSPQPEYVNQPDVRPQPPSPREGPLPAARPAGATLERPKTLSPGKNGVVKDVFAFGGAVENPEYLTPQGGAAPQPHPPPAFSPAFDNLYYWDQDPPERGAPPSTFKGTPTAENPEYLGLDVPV

MAP3K8 (COT) = MAP3K8 (COT) (Homo sapiens, UniProt P41279); design: SelectScreen Z'-LYTE purified kinase panel, per cent inhibition, mean of two points; details: (μM)=100
Chain of MAP3K8 (COT) (P41279 whole entry): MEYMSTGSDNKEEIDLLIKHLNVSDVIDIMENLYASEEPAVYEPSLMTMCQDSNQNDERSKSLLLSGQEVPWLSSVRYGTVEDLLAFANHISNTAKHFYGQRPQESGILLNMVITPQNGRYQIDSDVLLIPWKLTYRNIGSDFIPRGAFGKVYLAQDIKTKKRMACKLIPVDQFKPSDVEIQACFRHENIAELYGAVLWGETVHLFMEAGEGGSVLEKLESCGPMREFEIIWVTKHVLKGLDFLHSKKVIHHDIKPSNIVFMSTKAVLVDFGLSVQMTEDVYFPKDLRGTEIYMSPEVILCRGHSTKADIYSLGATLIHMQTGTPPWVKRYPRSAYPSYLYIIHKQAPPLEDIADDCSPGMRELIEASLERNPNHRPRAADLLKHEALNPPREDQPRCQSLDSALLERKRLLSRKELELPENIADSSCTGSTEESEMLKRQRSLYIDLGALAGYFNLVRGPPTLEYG

MAPK14 (p38 alpha) = MAPK14 (p38 alpha) (Homo sapiens, UniProt Q16539); design: SelectScreen Z'-LYTE purified kinase panel, per cent inhibition, mean of two points; details: (μM)=100
Chain of MAPK14 (p38 alpha) (Q16539 whole entry): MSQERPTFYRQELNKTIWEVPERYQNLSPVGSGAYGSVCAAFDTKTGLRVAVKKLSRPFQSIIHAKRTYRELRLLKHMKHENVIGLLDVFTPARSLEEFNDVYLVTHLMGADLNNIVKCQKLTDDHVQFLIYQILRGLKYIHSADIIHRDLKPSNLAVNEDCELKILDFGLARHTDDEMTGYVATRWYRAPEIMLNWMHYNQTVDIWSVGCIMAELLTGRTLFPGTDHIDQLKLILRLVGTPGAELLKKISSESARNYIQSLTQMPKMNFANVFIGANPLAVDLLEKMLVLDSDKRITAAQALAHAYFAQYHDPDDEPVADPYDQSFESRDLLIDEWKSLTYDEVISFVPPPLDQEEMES

PRKACA (PKA) = PRKACA (PKA) (Homo sapiens, UniProt P17612); design: SelectScreen Z'-LYTE purified kinase panel, per cent inhibition, mean of two points; details: (μM)=Km app
SYK = SYK (Homo sapiens, UniProt P43405); design: SelectScreen Z'-LYTE purified kinase panel, per cent inhibition, mean of two points; details: (μM)=Km app
DYRK1B = DYRK1B (Homo sapiens, UniProt Q9Y463); design: SelectScreen Z'-LYTE purified kinase panel, per cent inhibition, mean of two points; details: (μM)=Km app
Chain of DYRK1B (Q9Y463 whole entry): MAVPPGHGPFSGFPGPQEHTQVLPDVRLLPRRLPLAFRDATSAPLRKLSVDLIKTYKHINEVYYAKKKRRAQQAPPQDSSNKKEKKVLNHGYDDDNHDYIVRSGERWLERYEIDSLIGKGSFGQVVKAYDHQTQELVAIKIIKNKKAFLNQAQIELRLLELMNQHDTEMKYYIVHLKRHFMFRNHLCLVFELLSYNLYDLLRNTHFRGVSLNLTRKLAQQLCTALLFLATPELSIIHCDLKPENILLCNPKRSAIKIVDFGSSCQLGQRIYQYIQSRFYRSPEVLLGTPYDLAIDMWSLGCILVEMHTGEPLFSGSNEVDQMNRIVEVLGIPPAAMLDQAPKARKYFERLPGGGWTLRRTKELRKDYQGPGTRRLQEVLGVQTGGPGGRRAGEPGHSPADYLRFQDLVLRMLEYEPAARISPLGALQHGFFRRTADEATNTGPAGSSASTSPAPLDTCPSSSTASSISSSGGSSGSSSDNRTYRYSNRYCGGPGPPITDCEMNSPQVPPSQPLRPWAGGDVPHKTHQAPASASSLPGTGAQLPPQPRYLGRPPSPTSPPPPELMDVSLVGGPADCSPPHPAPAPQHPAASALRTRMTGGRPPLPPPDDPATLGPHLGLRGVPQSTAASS

PI3KC2β = molecular target: T1, PI3KC2β (Homo sapiens, UniProt O00750); design: ADP-Glo lipid kinase assay with liver PI substrate, luminescence; details: read-out: PITCOIN3 (IC50)
T1 construct: gene PIK3C2B

Chain of AKT2 (PKB beta) (P31751 whole entry): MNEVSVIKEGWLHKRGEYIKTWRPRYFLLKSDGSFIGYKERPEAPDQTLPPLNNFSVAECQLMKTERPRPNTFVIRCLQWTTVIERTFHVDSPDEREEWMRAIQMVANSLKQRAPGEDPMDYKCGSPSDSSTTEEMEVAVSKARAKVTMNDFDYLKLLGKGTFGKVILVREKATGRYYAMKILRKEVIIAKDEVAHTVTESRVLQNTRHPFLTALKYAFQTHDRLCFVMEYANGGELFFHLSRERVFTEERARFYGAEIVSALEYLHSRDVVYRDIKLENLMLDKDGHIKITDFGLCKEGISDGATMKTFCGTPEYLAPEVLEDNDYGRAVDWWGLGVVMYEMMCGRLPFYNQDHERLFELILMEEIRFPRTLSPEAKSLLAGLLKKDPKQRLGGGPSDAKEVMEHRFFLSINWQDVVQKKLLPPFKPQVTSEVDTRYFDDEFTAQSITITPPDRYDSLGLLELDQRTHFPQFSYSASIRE

inhibition at 1 µM (AKT2 (PKB beta)) [%]	inhibition at 3 µM (AKT2 (PKB beta)) [%]	inhibition at 10 µM (AKT2 (PKB beta)) [%]	inhibition at 1 µM (AURKB (Aurora B)) [%]	inhibition at 3 µM (AURKB (Aurora B)) [%]	inhibition at 10 µM (AURKB (Aurora B)) [%]	inhibition at 1 µM (ERBB2 (HER2)) [%]	inhibition at 3 µM (ERBB2 (HER2)) [%]	inhibition at 10 µM (ERBB2 (HER2)) [%]	inhibition at 1 µM (MAP3K8 (COT)) [%]	inhibition at 3 µM (MAP3K8 (COT)) [%]	inhibition at 10 µM (MAP3K8 (COT)) [%]	inhibition at 1 µM (MAPK14 (p38 alpha)) [%]	inhibition at 3 µM (MAPK14 (p38 alpha)) [%]	inhibition at 10 µM (MAPK14 (p38 alpha)) [%]	inhibition at 1 µM (PRKACA (PKA)) [%]	inhibition at 3 µM (PRKACA (PKA)) [%]	inhibition at 10 µM (PRKACA (PKA)) [%]	inhibition at 1 µM (SYK) [%]	inhibition at 3 µM (SYK) [%]	further results	Structure (SMILES)
4.3	3.38	4.53	-15.7	-5.68	-10.8	-9.9	-2.96	-11.6	1.68	-2.27	4.32	-3.25	-1.99	-0.632	9.73	5.23	4.58	2.84	2.83	inhibition at 10 µM (SYK): -0.59%; inhibition at 1 µM (DYRK1B): -3.1%; inhibition at 3 µM (DYRK1B): -1.26%; inhibition at 10 µM (DYRK1B): -0.107%	O=C(CSc1nc2nccnc2c(=O)n1CCc1ccccc1)Nc1nccs1 [compound 1, PITCOIN1]
6.93	6.2	4.52	-3.65	2.11	6.27	-1.62	-3.07	-10.7	2.37	11.4	4.89	1.55	6.76	2.67	9.77	8.29	5.74	0.0373	3.51	inhibition at 10 µM (SYK): 6.6%; inhibition at 1 µM (DYRK1B): -3%; inhibition at 3 µM (DYRK1B): -3.02%; inhibition at 10 µM (DYRK1B): -2.65%; pIC50 (PI3KC2β): < 5.00	CS(=O)(=O)Nc1cccc(-c2csc(NC(=O)CSc3nc4nccnc4c(=O)n3CCc3ccccc3)n2)c1 [compound 3, PITCOIN3]
